# Molecular target: T1, human CRTH2 (Homo sapiens, UniProt Q9Y5Y4)
# T1 construct: expressed in transfected cells
# T1 sequence (Q9Y5Y4 1-395): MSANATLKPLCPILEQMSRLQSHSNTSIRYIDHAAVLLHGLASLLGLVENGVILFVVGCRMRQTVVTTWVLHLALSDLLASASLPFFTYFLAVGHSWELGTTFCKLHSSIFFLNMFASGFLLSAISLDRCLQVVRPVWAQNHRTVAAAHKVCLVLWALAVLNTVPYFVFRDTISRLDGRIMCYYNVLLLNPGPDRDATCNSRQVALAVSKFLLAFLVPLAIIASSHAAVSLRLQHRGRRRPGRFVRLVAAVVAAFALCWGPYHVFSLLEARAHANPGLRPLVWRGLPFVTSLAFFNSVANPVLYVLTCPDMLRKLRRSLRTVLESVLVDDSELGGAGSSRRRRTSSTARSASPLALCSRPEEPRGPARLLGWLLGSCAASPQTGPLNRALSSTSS
# Test: [35S]GTPγS binding assay (SPA) on membranes from CHO-K1 cells stably expressing human CRTH2, stimulated with 60 nM DHK-PGD2
# Format: biochemical
# Details: potency class symbols; Table 2; read-out: CRTH2 hGTPγS IC50
# Method: [^35S]GTPγS Binding Assay
# SPA [^35S]G-TPγS binding was performed on membranes from CHO-K1 cells stably expressing human CRTH2. To a white, clear-bottomed 384-well plate, 4 μg membrane protein was incubated in the binding buffer (20 mM HEPES, pH 7.4, 10 mM MgCl2, 300 mM NaCl, 0.2% BSA) with 60 nM DHK-PGD2, 500 pM [^35S]GTPγS, 10 μM GDP, and 100 μg wheat germ agglutinin-coupled SPA beads (GE Healthcare) with and without increasing concentrations of compounds. The final assay volume was 40 μL and contained 1% DMSO. Samples were incubated for 2 h at ambient temperature. Plates were centrifuged 5 min at 1500 rpm. Plates were read after an additional 4 h using the Trilux 1450 Microbeta (PerkinElmer) with a 30 sec/well reading time.
row,IC50,Compound
1,100 to 1000 nM,"CN(Cc1ccc(OCC(=O)O)c(-c2cc(F)ccc2F)c1)S(=O)(=O)c1ccc(F)cc1 [Example 118, 2-(2,5-difluorophenyl)-4-((4-fluoro-N-methylphenylsulfonamido)methyl)phenoxyacetic acid]"
2,1000 to 10000 nM,"CN(Cc1ccc(OCC(=O)O)c(-c2cccc(C(F)(F)F)c2)c1)S(=O)(=O)c1ccccn1 [Example 173, 2-(3-trifluoromethylphenyl)-4-((N-methylpyridine-2-sulfonamido)methyl)phenoxyacetic acid]"
3,< 100 nM,"Cc1ccc(S(=O)(=O)N(C)Cc2ccc(OCC(=O)O)c(-c3cccc(S(C)(=O)=O)c3)c2)cc1 [Example 59, 2-(3-methylsulfonylphenyl)-4-((4-methyl-N-methylphenylsulfonamido)methyl)phenoxyacetic acid]"
4,1000 to 10000 nM,"CN(Cc1ccc(OCC(=O)O)c(-c2ccc(Cl)cc2)c1)S(=O)(=O)c1ccccc1 [Example 179, 2-(4-chlorophenyl)-4-((N-methylphenylsulfonamido)methyl)phenoxyacetic acid]"
5,1000 to 10000 nM,"Cc1noc(C)c1S(=O)(=O)N(C)Cc1ccc(OCC(=O)O)c(-c2cccc(C(F)(F)F)c2)c1 [Example 160, 2-(3-trifluoromethylphenyl)-4-((N,3,5-trimethylisoxazole-4-sulfonamido)methyl)phenoxyacetic acid]"
6,100 to 1000 nM,"COc1ccc(S(=O)(=O)N(C)Cc2ccc(OCC(=O)O)c(-c3cccc(C#N)c3)c2)cc1 [Example 104, 2-(3-cyanophenyl)-4-((4-methoxy-N-methylphenylsulfonamido)methyl)phenoxyacetic acid]"
7,< 100 nM,"CN(Cc1cc(-c2cccc(C#N)c2)c(OCC(=O)O)cc1F)S(=O)(=O)c1cccc(F)c1 [Example 87, 2-(3-cyanophenyl)-4-((3-fluoro-N-methylphenylsulfonamido)methyl)-5-fluorophenoxyacetic acid]"
8,< 100 nM,"CN(Cc1ccc(OCC(=O)O)c(-c2cc(F)cc(C#N)c2)c1)S(=O)(=O)c1ccc(F)c(Cl)c1 [Example 55, 2-(3-cyano-5-fluorophenyl)-4-((3-chloro-4-fluoro-N-methylphenylsulfonamido)methyl)phenoxyacetic acid]"
9,< 100 nM,"CN(Cc1ccc(OCC(=O)O)c(-c2cc(F)cc(C#N)c2)c1)S(=O)(=O)c1cccs1 [Example 190, 2-(3-cyano-5-fluorophenyl)-4-((N-methylthiophene-2-sulfonamido)methyl)phenoxyacetic acid]"
10,100 to 1000 nM,"CN(Cc1ccc(OCC(=O)O)c(-c2cccc(C(F)(F)F)c2)c1)S(=O)(=O)c1ccc(S(C)(=O)=O)cc1 [Example 134, 2-(3-trifluoromethylphenyl)-4-((4-methylsulfonyl-N-methylphenylsulfonamido)methyl)phenoxyacetic acid]"
11,< 100 nM,"CN(Cc1ccc(OCC(=O)O)c(-c2cc(F)cc(C#N)c2)c1)S(=O)(=O)c1ccccc1 [Example 80, 2-(3-cyano-5-fluorophenyl)-4-((N-methylphenylsulfonamido)methyl)phenoxyacetic acid]"
12,1000 to 10000 nM,"CN(Cc1ccc(OCC(=O)O)c(-c2cccc3cnccc23)c1)S(=O)(=O)c1ccc(F)cc1 [Example 185, 2-(isoquinolin-5-yl)-4-((4-fluoro-N-methylphenylsulfonamido)methyl)phenoxyacetic acid]"
13,100 to 1000 nM,"CN(Cc1ccc(OCC(=O)O)c(-c2cc(C(F)(F)F)ccc2Cl)c1)S(=O)(=O)c1ccc(F)cc1 [Example 115, 2-(2-chloro-5-trifluoromethylphenyl)-4-((4-fluoro-N-methylphenylsulfonamido)methyl)phenoxyacetic acid]"
14,< 100 nM,"N#Cc1cc(F)cc(-c2cc(CNS(=O)(=O)c3ccc(F)cc3)ccc2OCC(=O)O)c1 [Example 195, 2-(3-cyano-5-fluorophenyl)-4-((4-fluorophenylsulfonamido)methyl)phenoxyacetic acid]"

# — patent publication US8822467B2 (Ligand Pharmaceuticals Inc., priority 2009, dated 2014)
